# Columns and labels:
# [1] = Solubility of antipolymerants in ethylbenzene; format: physicochemical; details: solvent ethylbenzene
# Text: (§1) In order to highlight the increased antipolymerant content that can be achieved, the solubility of three antipolymerants in ethylbenzene, a widely used solvent for supplying antipolymerants for styrene monomer production, is compared with concentration when the antipolymerant is supplied as a SC. The comparative data for the antipolymerants are set out in Table 1.
# Thus, it is clear that, for all three active components, the concentration achieved in the SC is far greater than that observed in ethylbenzene. The same concentration could also be obtained when two of the active components were combined in the SC. By contrast, combining more than one of the actives in ethylbenzene, the total concentration of actives was reduced. Thus, for a combination of 2,5-di-tert-butyl-p-benzoquinone and dibenzylhydroxylamine, the total concentration in ethylbenzene was <10 w/w %.
# [2] = hazard classification; cited from earlier work
# [3] = Maximum concentration of actives in suspension concentrate (SC); format: physicochemical; details: for Concentration in SC: maximum concentration of active in suspension concentrate
# Protocol: To the liquid carrier (approximately 80% of the required amount) is added the required quantity of the dispersing agent and the mixture is stirred until a fully homogeneous solution is formed. Under high shear conditions, the desired amount of active inhibitor component is added to the dispersant solution and the formulation is stirred until it becomes completely homogeneous. The resulting dispersed active inhibitor is transferred to a bead mill where it is continuously milled until the required particle size distribution is obtained. Desirably, the particle size is less than 10 microns. Under additional stirring, the remaining liquid carrier, optionally a preservative agent and optionally a thickening agent are added to the milled formulation until a homogeneous suspension concentrate is formed. The required quantities of the components of the formulation are in each case determined with reference to the scale of the process which is being conducted.
# as §1
# (§2) This effect is further illustrated by reference to a further example wherein a stable suspension concentrate of phenothiazine (PTZ), containing 40 percent by weight of the PTZ component, was easily obtained using the above methodology. PTZ is a widely used inhibitor in (meth)acrylic acid and ester processes, but has low solubility in most solvents that are compatible with such processes. In most industrial cases, PTZ is supplied in its solid form and dissolved in the monomer to form a dilute solution for dosing into the monomer purification process. Thus, for example, in laboratory tests, PTZ had the following solubilities: acrylic acid (2.6 w/w %), methacrylic acid (2.4 w/w %), n-butyl acrylate (9.7 w/w %), methyl methacrylate (8.4 w/w %).
# [4] = Batch tests: polymer content in refluxing styrene monomer; details: for Effect: batch test, styrene, 120° C., inhibitor or retarder
# Protocol: The particular ethylenically unsaturated compound used in the tests was a vinyl aromatic monomer, specifically styrene monomer. The use of a vinyl aromatic monomer for this purpose is illustrative and is not intended to exclude other ethylenically unsaturated compounds from the scope of this invention.
# Batch tests (the results of which are detailed in Table 2), and continuous flow tests were carried out in order to represent different types of processing conditions which can occur in the industrial processing of ethylenically unsaturated compounds. These tests compare the compositions of the present invention with compositions of the prior art.
# The batch test was designed in order to show whether a test composition is an inhibitor or a retarder. The tests were carried out in styrene monomer refluxing under reduced pressure at 120° C. in order to reduce the presence of atmospheric oxygen to such low levels as can be expected in a commercial styrene monomer purification plant.
# For the batch tests the vinyl aromatic monomer composition containing the test substances was heated to 120° C. and stirred under reduced pressure so that it refluxed at the test temperature. Samples were taken at intervals of time and tested for polymer content in order to assess the effectiveness of polymerisation control.
# [5] = Laboratory solubility tests of PTZ in monomers; format: physicochemical
# Text: as §2
# [6] = Acrylic acid tube test (inhibition period); details: 25 ppm inhibitor, lean air (5% oxygen in nitrogen), 120° C., until first white precipitate
# Protocol: In a typical test, a series of tubes containing acrylic acid and inhibitor was sparged with a lean air mixture (5% oxygen in nitrogen). These tubes were then heated at 120° C. until the first signs of polymerisation were detected (by means of the formation of white precipitate), and this was determined as the inhibition period.
SMILES,Solubility in ethylbenzene [1],Dermal Toxicity [2],Oral Toxicity [2],Toxic by Inhalation [2],Concentration in SC [3],also measured
"CC(C)(C)C1=CC(=O)C(C(C)(C)C)=CC1=O [BQ, 2,5-di-tert-butyl-p-benzoquinone]",11.9 w/w %,No,No,No,45.0 w/w %,–
"ON(Cc1ccccc1)Cc1ccccc1 [DBHA, N,N-dibenzyl hydroxylamine]",1.6 w/w %,No,No,No,45.0 w/w %,–
"CCC(C)c1cc([N+](=O)[O-])cc([N+](=O)[O-])c1O (stereo not shown) [DNBP, 4,6-Dinitro-2-sec-butyl phenol]",–,Yes,–,–,–,"Effect [4]: retarder; Effect ([4]; listed as Control 1): Retarder; Polymer (ppm) @ (time) 180 mins ([4]; styrene refluxing under reduced pressure at 120° C., 180 mins, component doses in ppm as in table): 4000 ppm"
"CC(C)(C)c1cc(O)c(C(C)(C)C)cc1O [HQ, 2,5-di-tert-butyl hydroquinone]",6.7 w/w %,–,–,–,45.0 w/w %,–
"c1ccc2c(c1)Nc1ccccc1S2 [PTZ, phenothiazine]",–,–,–,–,–,solubility in acrylic acid ([5]; acrylic acid): 2.6 w/w %; solubility in methacrylic acid ([5]; methacrylic acid): 2.4 w/w %; solubility in methyl methacrylate ([5]; methyl methacrylate): 8.4 w/w %; solubility in n-butyl acrylate ([5]; n-butyl acrylate): 9.7 w/w %; Inhibition Period [6]: 531 min; PTZ content of stable suspension concentrate ([3]; stable suspension concentrate): 40 percent by weight

# Reference: patent US20140194559A1, “Novel Inhibitor Compositions and Methods of Use” (NuFarm UK Limited, priority 2011, published 2014)
